{
  "source": "patent US9926375B2",
  "about": "“Anti-endoglin antibodies and uses thereof” (Tracon Pharmaceuticals, Inc., priority 2014, dated 2018)",
  "key": {"human endoglin": {"target": "T1, human endoglin (Homo sapiens, UniProt P17813)", "T1 sequence (P17813 26-658)": "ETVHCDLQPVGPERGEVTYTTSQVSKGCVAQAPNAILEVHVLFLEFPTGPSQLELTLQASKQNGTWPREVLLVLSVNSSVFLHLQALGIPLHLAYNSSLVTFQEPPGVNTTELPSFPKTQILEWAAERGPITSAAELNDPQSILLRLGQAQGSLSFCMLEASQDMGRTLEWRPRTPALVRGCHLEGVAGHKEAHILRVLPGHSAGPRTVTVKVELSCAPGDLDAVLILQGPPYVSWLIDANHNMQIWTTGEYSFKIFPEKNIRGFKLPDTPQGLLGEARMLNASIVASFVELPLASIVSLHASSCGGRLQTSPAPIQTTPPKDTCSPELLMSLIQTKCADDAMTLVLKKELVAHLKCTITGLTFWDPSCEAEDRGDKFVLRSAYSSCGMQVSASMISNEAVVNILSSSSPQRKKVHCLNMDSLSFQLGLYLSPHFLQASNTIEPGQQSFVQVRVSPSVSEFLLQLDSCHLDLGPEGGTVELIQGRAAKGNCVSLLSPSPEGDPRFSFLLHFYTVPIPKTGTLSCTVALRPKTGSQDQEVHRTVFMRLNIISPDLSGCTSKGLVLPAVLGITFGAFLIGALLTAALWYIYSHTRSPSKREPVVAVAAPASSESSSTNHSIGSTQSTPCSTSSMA", "details": "statement in description; cited from earlier work"}, "mouse endoglin [1]": {"target": "T2, mouse endoglin (Mus musculus, UniProt Q63961)", "T2 sequence (Q63961 27-653)": "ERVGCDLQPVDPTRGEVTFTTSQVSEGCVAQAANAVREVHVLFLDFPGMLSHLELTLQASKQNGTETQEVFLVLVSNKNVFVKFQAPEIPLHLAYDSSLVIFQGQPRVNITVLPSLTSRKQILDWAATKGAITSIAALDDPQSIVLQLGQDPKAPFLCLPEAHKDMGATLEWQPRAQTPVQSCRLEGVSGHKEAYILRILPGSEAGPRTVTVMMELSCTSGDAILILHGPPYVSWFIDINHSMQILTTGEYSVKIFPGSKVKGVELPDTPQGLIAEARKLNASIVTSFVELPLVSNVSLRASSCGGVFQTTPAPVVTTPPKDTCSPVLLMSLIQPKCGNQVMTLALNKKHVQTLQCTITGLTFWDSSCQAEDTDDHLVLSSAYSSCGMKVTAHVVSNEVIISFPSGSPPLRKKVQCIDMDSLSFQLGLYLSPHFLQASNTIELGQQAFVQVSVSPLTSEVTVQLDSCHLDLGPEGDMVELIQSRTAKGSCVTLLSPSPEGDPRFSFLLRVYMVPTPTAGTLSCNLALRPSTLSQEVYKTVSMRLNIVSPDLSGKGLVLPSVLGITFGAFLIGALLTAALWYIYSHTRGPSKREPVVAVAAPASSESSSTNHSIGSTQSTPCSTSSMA", "assay": "Inhibition of mouse BMP binding to mouse endoglin (statement, no method)", "details": "statement in description"}, "[2]": {"system": "BLM-induced pulmonary fibrosis model mice", "assay": "Bleomycin-induced pulmonary fibrosis model", "format": "in vivo, mouse", "details": "vs isotype-control antibody group (isotype-control vs disease control group); day 21; Bonferroni, P<0.05", "protocol": "Pathogen-free 7 weeks old female C57BL/6J mice were obtained from Japan SLC, Inc. (Japan). At day 0, 60 mice were induced to develop pulmonary fibrosis by a single intratracheal administration of bleomycin sulphate (BLM, Nippon Kayaku, Japan) in saline at a dose of 3 mg/kg, in a volume of 50 μL per animal using Microsprayer® (Penn-Century, USA).\nBLM-induced pulmonary fibrosis model mice were randomized into 4 groups of 12 mice based on the body weight on the day before the start of treatment.\nGroup 3 (M1043 Antibody): Twelve BLM-induced pulmonary fibrosis model mice were intravenously administered vehicle supplemented with M1043 at a dose of 10 mg/kg twice weekly at day 7, 10, 14 and 17.\nGroup 4 (TRC105 human/mouse chimeric antibody): Twelve BLM-induced pulmonary fibrosis model mice were intravenously administered vehicle supplemented with TRC105 at a dose of 10 mg/kg twice weekly at day 7, 10, 14 and 17.\nGroup 5 (BIBF1120 inhibitor for Idiopathic Pulmonary Fibrosis—positive control, Boehringer Ingelheim): Twelve BLM-induced pulmonary fibrosis model mice were orally administered 1% CMC supplemented with BIBF1120 at a dose of 100 mg/kg once daily from day 7 to 21. […]\nHistological analysis of lung sections was conducted by practitioners who are not aware of the Group identity. Masson's Trichrome staining is conducted and an Ashcroft Score estimate was determined. […]"}, "NASH mice": {"system": "NASH mice", "assay": "Murine model of non-alcoholic steatohepatitis (NASH; STZ and high fat diet)", "format": "in vivo, mouse", "source_text": "The purpose of this study was to examine the protective effects of endoglin antibodies on a murine model of NASH.\nNASH was established by a single subcutaneous injection of STZ (Sigma, USA) after birth and feeding with a high fat diet (HFD; CLEA Japan, Japan) ad libitum after 4 weeks of age (day 28±2).\nRandomization of mice into 6 groups of 10 mice was done at 9 weeks of age (day 63±2), the day before the start of treatment.\nGroup 3 (Positive control; Temlisartan Group): Ten NASH mice were be orally administered pure water supplemented with telmisartan at a dose of 10 mg/kg once daily from day 63 to 84.\nGroup 4 (Antibody M1043: M1043 Group): Ten NASH mice were intravenously administered vehicle supplemented with Antibody M1043 at a dose of 10 mg/kg twice weekly at day 63, 66, 70, 73, 77 and 80.\nGroup 5 (Antibody TRC105; TRC105 Group): Ten NASH mice were intravenously administered vehicle supplemented with Antibody TRC105 at a dose of 10 mg/kg twice weekly at day 63, 66, 70, 73, 77 and 80.\nGroup 6 (Antibody TRC205; TRC205 Group): Ten NASH mice were intravenously administered vehicle supplemented with Antibody TRC205 at a dose of 10 mg/kg twice weekly at days 63, 66, 70, 73, 77 and 80.\nMice in all groups were terminated for the following assays at 12 weeks of age.\nH&E staining of liver tissue was conducted to estimate NAFLD Activity score.\nTotal NAS score represents the sum of scores for steatosis, lobular inflammation, and ballooning, and ranges from 0-8. Diagnosis of NASH (or, alternatively, fatty liver not diagnostic of NASH) should be made first, then NAS is used to grade activity. In the reference study, NAS scores of 0-2 occurred in cases largely considered not diagnostic of NASH, scores of 3-4 were evenly divided among those considered not diagnostic, borderline, or positive for NASH. Scores of 5-8 occurred in cases that were largely considered diagnostic of NASH.\nStatistical tests were performed using Bonferroni Multiple Comparison Test. P values<0.05 were considered statistically significant."}, "mouse endoglin [3]": {"target": "T3, mouse endoglin (Mus musculus, UniProt Q63961)", "T3 construct": "purchased R&D Systems 1320-EN-025", "T3 sequence (Q63961 27-581 limits assumed)": "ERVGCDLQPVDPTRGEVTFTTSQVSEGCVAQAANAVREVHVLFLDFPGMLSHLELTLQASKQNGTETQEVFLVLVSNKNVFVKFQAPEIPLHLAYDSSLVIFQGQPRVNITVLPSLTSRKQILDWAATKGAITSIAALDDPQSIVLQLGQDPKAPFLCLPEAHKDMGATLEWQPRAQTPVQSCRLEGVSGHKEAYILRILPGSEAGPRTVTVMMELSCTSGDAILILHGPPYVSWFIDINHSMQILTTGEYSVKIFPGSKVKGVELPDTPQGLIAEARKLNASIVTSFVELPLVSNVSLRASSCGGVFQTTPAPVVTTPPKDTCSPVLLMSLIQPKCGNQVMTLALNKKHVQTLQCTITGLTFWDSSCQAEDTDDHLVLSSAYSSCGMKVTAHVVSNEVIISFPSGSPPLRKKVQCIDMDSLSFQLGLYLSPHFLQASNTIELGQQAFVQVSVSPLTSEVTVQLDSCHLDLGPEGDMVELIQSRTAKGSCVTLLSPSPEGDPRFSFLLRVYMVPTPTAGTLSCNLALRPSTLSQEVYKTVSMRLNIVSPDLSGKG", "assay": "Competition ELISA of mouse BMP9 against biotinylated M1043 for binding to mouse endoglin", "details": "30 μg/ml to 0.004 μg/ml competitor; biotinylated M1043 40 ng/ml", "protocol": "The ability of mouse BMP9 to compete with the rat antibody M1043 for binding to mouse endoglin was determined by competition ELISA as follows: 200 μg of M1043 antibody was biotinylated with a Lightning-Link biotinylation kit (Innova Biosciences, Cat. No. 704-0010) according to the manufacturers recommendations. Nunc Immuno MaxiSorp 96 well flat bottom plates (Fisher Cat. No. DIS-971-030J) were coated with mouse endoglin (R&D Systems, Cat. No. 1320-EN-025) at 1 μg/ml in PBS overnight at 4° C. The following day the plate was washed three times with PBST before blocking with PBST/3% Marvel at room temperature for 1 hour. A threefold dilution series (30 μg/ml to 0.004 μg/ml) of mouse BMP9 (R&D Systems, Cat. No. 5566-BP-010) or an irrelevant rat IgG1 was mixed with a fixed concentration of biotinylated M1043 (40 ng/ml), added to the plate and incubated for 1 hour at room temperature. Binding of the biotinylated antibody was detected via streptavidin-HRP (Sigma, Cat. No. 55512) and TMB substrate (Sigma, Cat. No. T0440). OD450 nm values were measured on a Dynex MRX TCII plate reader."}, "[4]": {"details": "liver gene expression, mean ± SD, Normal-Vehicle 1.0"}},
  "data": [
    {"molecule": "TRC105: human murine chimeric IgG1 monoclonal antibody that binds endoglin; VL/VH SEQ ID NOS. 1 and 39", "values": [
      {"measurement": "Effect on human BMP binding to human endoglin", "setting": "human endoglin", "value": "competitively inhibits human BMP binding"},
      {"measurement": "Effect on mouse BMP binding to mouse endoglin", "setting": "mouse endoglin [1]", "value": "dose not prevent the binding of mouse BMP to mouse endoglin"},
      {"measurement": "Ashcroft score, comparison between groups", "setting": "[2]", "value": "significantly lower"},
      {"measurement": "Liver triglyceride contents compared with the NASH-Vehicle group", "setting": "NASH mice; Bonferroni, P<0.05", "value": "tended to decrease"},
      {"measurement": "NAS compared with the NASH-Vehicle group", "setting": "NASH mice; Bonferroni, P<0.05", "value": "tended to decrease in NAS"},
      {"measurement": "Serum alanine aminotransferase (ALT) levels compared with the NASH-Vehicle group", "setting": "NASH mice; Bonferroni, P<0.05", "value": "no significant difference"},
      {"measurement": "Serum alkaline phosphatase (ALP) levels compared with the NASH-Vehicle group", "setting": "NASH mice; Bonferroni, P<0.05", "value": "tended to decrease"},
      {"measurement": "Tissue inhibitor of metalloproteinase-1 mRNA expression levels compared with the NASH-Vehicle group", "setting": "NASH mice; Bonferroni, P<0.05", "value": "significantly up-regulated"},
      {"measurement": "Tumor necrosis factor-alpha mRNA expression levels compared with the NASH-Vehicle group", "setting": "NASH mice; Bonferroni, P<0.05", "value": "significantly up-regulated"},
      {"measurement": "F4/80-positive signals and cells in liver compared with the NASH-Vehicle group", "setting": "NASH mice; F4/80 immunostaining, macrophage marker", "value": "Lower F4/80-positive signals and positive cells"},
      {"measurement": "Alpha-SMA mRNA expression", "setting": "NASH mice; [4]", "value": "1.7 ± 0.7"},
      {"measurement": "MCP-1 mRNA expression", "setting": "NASH mice; [4]", "value": "5.7 ± 4.2"},
      {"measurement": "TIMP-1 mRNA expression", "setting": "NASH mice; [4]", "value": "25.4 ± 23.0"},
      {"measurement": "TNF-α mRNA expression", "setting": "NASH mice; [4]", "value": "12.9 ± 9.5"},
      {"measurement": "Liver triglyceride", "setting": "NASH mice; mean ± SD", "value": "31.1 ± 20.3", "unit": "mg/g liver"},
      {"measurement": "Serum ALP", "setting": "NASH mice; mean ± SD", "value": "291 ± 119", "unit": "U/L"},
      {"measurement": "Serum ALT", "setting": "NASH mice; mean ± SD", "value": "62 ± 57", "unit": "U/L"},
      {"measurement": "Serum AST", "setting": "NASH mice; mean ± SD", "value": "204 ± 205", "unit": "U/L"},
      {"measurement": "Sirius red-positive area", "setting": "NASH mice; mean ± SD, liver sections", "value": "0.92 ± 0.20", "unit": "%"},
      {"measurement": "NAS (NAFLD Activity score)", "setting": "NASH mice; mean ± SD, range 0-8, 10 mg/kg", "value": "4.4 ± 1.4"},
      {"measurement": "Steatosis score 0, number of mice", "setting": "NASH mice; score 0 = <5%, 12 weeks of age", "value": 1},
      {"measurement": "Hepatocyte ballooning score 0, number of mice", "setting": "NASH mice; score 0 = None", "value": 3},
      {"measurement": "Steatosis score 1, number of mice", "setting": "NASH mice; score 1 = 5-33%", "value": 6},
      {"measurement": "Lobular inflammation score 1, number of mice", "setting": "NASH mice; score 1 = <2 foci/200x", "value": 1},
      {"measurement": "Lobular inflammation score 2, number of mice", "setting": "NASH mice; score 2 = 2-4 foci/200x", "value": 5},
      {"measurement": "Steatosis score 2, number of mice", "setting": "NASH mice; score 2 = >33-66%", "value": 1},
      {"measurement": "Hepatocyte ballooning score 2, number of mice", "setting": "NASH mice; score 2 = Many cells/prominent ballooning", "value": 5},
      {"measurement": "Lobular inflammation score 3, number of mice", "setting": "NASH mice; score 3 = >4 foci/200x", "value": 2}
    ]},
    {"molecule": "mouse BMP9: mouse BMP9 (R&D Systems, Cat. No. 5566-BP-010), endoglin ligand (protein) STGASSHCQKTSLRVNFEDIGWDSWIIAPKEYDAYECKGGCFFPLADDVTPTKHAIVQTLVHLKFPTKVGKACCVPTKLSPISILYKDDMGVPTLKYHYEGMSVAECGCR", "values": [
      {"measurement": "Competition with biotinylated M1043 for binding to mouse endoglin", "setting": "mouse endoglin [3]", "value": "competed with biotinylated M1043 for binding to mouse endoglin"}
    ]}
  ]
}
